In ChEMBL document CHEMBL4177722, “Small molecule inhibitors of anthrax edema factor” (Bioorg Med Chem Lett, 2018):

Legend:
[1] = Chemical stability in 0.1 M K2PO4 at pH 7.4 assessed as parent compound remaining incubated for 24 hrs by LC-MS method; format: physicochemical; conditions: buffer, pH 7.4, 24 h
[2] = Stability in C57BL/6 mouse plasma assessed as assessed as parent compound remaining at 10 uM by LC-MS method; format: ADME, cell-free, C57B/6; conditions: read-out: Stability

## Nc1ncnc2c1ccn2C1CCN(C(=O)c2ccc(S(=O)(=O)F)cc2)CC1
[1]
  Stability: Stable
[2]
  remaining at 10 µM: < 5%
